In brackets after ≈: the same amount, converted by molar mass. Like-named read-outs stand apart in the source and are kept apart here.
What was measured:
Format in all cases: physicochemical
[1] = VT-XRPD analysis of Solid Form B
Description: VT-XRPD analysis was carried out on a Philips X'Pert Pro Multipurpose diffractometer equipped with a temperature chamber. The samples were scanned between 4 and 35.99°2θ using Cu K radiation (α1λ=1.54060 Å; α2=1.54443 Å; β=1.39225 Å; α1:α2 ratio=0.5) running in Bragg-Brentano geometry (step size 0.008°2θ) using 40 kV/40 mA generator settings. Solid Form B was analyzed by VT-XRPD to assess changes in form upon heating. The sample was heated at 10° C./min and diffraction pattern collected at various temperatures (based on TG/DSC data).

[2] = Dynamic vapour sorption (DVS) assessment of Solid Form B
[3] = 7-day stability assessment of Solid Form B; settings: 7 days; for HPLC purity (% rel. Area): input purity 100%
Description: 15 mg of Solid Form B was weighed into 3×1.5 mL vials. • One vial was left uncapped, placed inside a scintillation vial and stored at ambient conditions (ca. 20° C.). • One vial was left uncapped and placed inside a scintillation vial. This was placed in a stability oven at 40° C./75% RH. • One vial was capped and placed inside a scintillation vial. This was placed inside an oven at 80° C. After 7 days the samples were removed from their respective conditions, analyzed by XRPD and submitted for HPLC analysis.

[4] = VH-XRPD analysis of Solid Form B
Description: VH-XRPD analysis was carried out on a Philips X'Pert Pro Multipurpose diffractometer equipped with a humidity chamber. The samples were scanned between 4 and 35.99°2θ using Cu K radiation (α1λ=1.54060 Å; α2=1.54443 Å; β=1.39225 Å; α1:α2 ratio=0.5) running in Bragg-Brentano geometry (step size 0.008°2θ) using 40 kV/40 mA generator settings. Variable humidity XRPD was carried out using the following method: A diffractogram was collected once each targeted % RH was reached and after the reported time had elapsed (Table 14 below). After 20 hours at 2% RH, some P2O5 was introduced within the stage chamber with the aim of further dry the environment. The sample was kept at these conditions for further 16 hours, during which a diffractogram was collected ever hour.

[5] = Thermodynamic solubility assessment of Solid Form B; settings: for solubility thermodynamic at 24 h: thermodynamic from solid; for solubility thermodynamic at 24 h / XRPD Pattern of residual solid: 24 hours

XRPD (form observed on heating) ([1]; 30 °C, hold 0 mins (last step, after 135 °C)): Solid Form A | XRPD (form observed on heating) ([1]; 30 °C, hold 0 mins (start), heated at 10 °C/min): Solid Form B | XRPD (form observed on heating) ([1]; 85 °C, hold 0 mins): Solid Form C | XRPD (form observed on heating) ([1]; 85 °C, hold 5 mins): Solid Form C | Solid form observed upon heating (VT-XRPD) ([1]; 130° C.): mixture of Solid Form A and C | XRPD (form observed on heating) ([1]; 130 °C, hold 0 mins): Solid Form A/C | Solid form observed upon heating (VT-XRPD) ([1]; 135° C.): consistent with Solid Form A | XRPD (form observed on heating) ([1]; 135 °C, hold 0 mins): Solid Form A | XRPD (form observed on heating) ([1]; 135 °C, hold 10 mins): Solid Form A | Solid form observed upon heating (VT-XRPD) ([1]; heated to 85° C., 10° C./min): Solid Form C | Uptake (DVS) ([2]; at 80% RH): 4.3 wt. % | Mass loss on de-sorption/uptake on sorption (DVS) ([2]; between 0 and 10% RH): ca. 2.6 wt. % | Mass loss on de-sorption/uptake on sorption (DVS), water equivalents ([2]; between 0 and 10% RH): 0.6 eq. water | Uptake (DVS) ([2]; between 40 and 80% RH, first sorption cycle): 0.2 wt. % | Solid form after storage (XRPD) ([3]; 40° C./75% RH): retained | XRPD (form after storage) ([3]; 40° C./75% RH): Solid Form B | HPLC purity (% rel. Area) ([3]; 40° C./75% RH): 100 % rel. Area | HPLC purity (% rel. Area) ([3]; 80° C.): 100 % rel. Area | XRPD (form after storage) ([3]; Ambient Light): Solid Form B | HPLC purity (% rel. Area) ([3]; Ambient Light): 100 % rel. Area | Solid form after storage (XRPD) ([3]; ambient temperature (ca. 20° C.)): retained | Purity change (HPLC) ([3]; ambient, 40° C./75% RH and 80° C.): no drop in purity | XRPD (form at variable humidity) ([4]; 2% RH, 0.5 hours): Solid Form B | XRPD (form at variable humidity) ([4]; 2% RH, 20 hours): Solid Form B | XRPD (form at variable humidity) ([4]; 10% RH, 1 hour): Solid Form B | XRPD (form at variable humidity) ([4]; 40% RH, 0 hours (start)): Solid Form B | XRPD (form at variable humidity) ([4]; 40% RH, 0.5 hours): Solid Form B | XRPD (form at variable humidity) ([4]; 90% RH, 0.5 hours): Solid Form B | Change in form under variable humidity (VH-XRPD) ([4]; variable % RH, down to 2% RH and with P2O5): no change in form | Solid form after solubility test (XRPD) ([5]; across the pH range, 25° C.): retained | solubility thermodynamic at 24 h ([5]; aqueous buffer, pH 4.5 buffer, 25° C., read-out: HPLC conc. (mg/mL), thermodynamic solubility): 162 mg/mL (≈ 411 mM) | solubility thermodynamic at 24 h ([5]; aqueous buffer, pH 6.8 buffer, 25° C., read-out: HPLC conc. (mg/mL), thermodynamic solubility): 21.8 mg/mL (≈ 55.1 mM) | solubility thermodynamic at 24 h ([5]; buffer, aqueous buffer, pH 4.5, 25° C., read-out: Thermodynamic solubility): > 150 mg/mL | XRPD Pattern of residual solid ([5]; pH 1.2 buffer, 25° C.): Solid Form B | XRPD Pattern of residual solid ([5]; pH 4.5 buffer, 25° C.): Solid Form B | XRPD Pattern of residual solid ([5]; pH 6.8 buffer, 25° C.): Solid Form B | solubility thermodynamic at 24 h ([5]; simulated gastric fluid, pH 1.2 buffer, 25° C., read-out: HPLC conc. (mg/mL), thermodynamic solubility): 46.7 mg/mL (≈ 118 mM)
Compound: C[C@@H]1CN(Cc2ncccn2)C[C@H]1c1nc2c(cnn2C2CCOCC2)c(=O)[nH]1 [Solid Form B, 6-((3S,4S)-4-methyl-1-(pyrimidin-2-ylmethyl)pyrrolidin-3-yl)-1-(tetrahydro-2H-pyran-4-yl)-1,5-dihydro-4H-pyrazolo[3,4-d]pyrimidin-4-one]
XRPD form after DVS analysis ([2]; post DVS): consistent with Solid Form B with traces of Solid Form C | Solid form after storage (XRPD) ([3]; 80° C.): converted to a mixture of Solid Form A and Solid Form C

Reference: patent publication US12012412B2, “Solid forms of pyrazolo[3,4-d]pyrimidine compounds” (Pfizer Inc., priority 2021, dated 2024)
